A melting point compilation (Tetko et al.)

SMILES | melting point [°C]
CCOC(=O)/C(C#N)=C\Nc1ccc(CC)cc1 | 97 to 99
CC(=O)c1cccc(N2CCCC2=O)c1 | 90 to 95
Cc1ccc(NC(=O)CCl)cc1S(=O)(=O)N(C)C | 74 to 76
O=C1Nc2c(ccc(Cl)c2Cl)C1=O | 203 to 205
Cc1nc(N)c(I)cc1Br | 135 to 137
CC(C)(C)OC(=O)N1CCCC(C(=O)NC2CCCNC2)C1 (configuration not stated) | 116 to 118
Nc1cc(-c2ccc(I)cc2)[nH]n1 | 186 to 188
CC(C)C(C(=O)O)N1CCCC1=O (configuration not stated) | 130 to 132
CCC(C(=O)O)c1cccc(C(F)(F)F)c1 (configuration not stated) | 41 to 43
Cc1cc(C(=O)C(C)Cl)c(C)n1-c1ccccc1 (configuration not stated) | 78 to 82
COc1cc(N)ccc1N1CCCC1=O | 126 to 128
CCCOc1cccc(C(=O)O)c1 | 73 to 75
Nc1ccc(S(N)(=O)=O)cc1[N+](=O)[O-] | 206 to 208
O=C(O)Cc1cccc(OC(F)F)c1 | 52 to 54
Cn1ccnc1C(N)=S | 134 to 136
O=C(NCCCN1CCCC1=O)OCC(F)(F)F | 35 to 37
NC(=S)c1cc2ccccc2oc1=O | 241 to 243
CC(=O)c1sc(-c2ccc(O)cc2)nc1C | 133 to 135
OC(c1ccccc1)c1nccs1 (configuration not stated) | 99 to 101
O=S1(=O)CCC(c2nnc(S)o2)C1 (configuration not stated) | 181 to 183
Oc1ccc2c(O)ccnc2c1 | 207 to 209
CSc1nc(Cl)ccc1C(=O)O | 189 to 191
NC(=S)Cc1nccn1Cc1ccccc1 | 131 to 133
CCC(Br)C(=O)Nc1cc(C)on1 (configuration not stated) | 103 to 105

SMILES | melting point [°C]
Cc1ccc(S(=O)(=O)NC2CC2)cc1C(=O)O | 252 to 257
COC(=O)c1c(S)nc(=O)[nH]c1C | 225 to 227
CN(C)S(=O)(=O)c1ccc(-c2csc(N)n2)cc1 | 243 to 245
COc1cccc(-n2ccnc2S)c1 | 149 to 151
O=C(O)c1cc(N2CCOC2=O)ccc1F | 232 to 234
COc1ccc(OC)c(C(F)(F)C(=O)O)c1 | 81 to 83
CCCc1ncc(C(=O)O)s1 | 135 to 137
Cc1ccc(NN)nn1 | 107 to 109
NC(=O)N1CCc2cc(S(=O)(=O)F)ccc21 | 218 to 220
CCC(C)NC(=O)c1ccc(N)c(C)c1 (configuration not stated) | 123 to 125
O=C(O)CCSc1ccccc1Br | 104 to 106
O=C(O)C1(Cc2ccccc2)CC1 | 102 to 104
Cc1cc(C)cc(CCC(=O)O)c1 | 49 to 51
N#Cc1cc2c([nH]c1=O)CCN(CCc1ccccc1)C2 | 219 to 221
NC(=O)Cc1ccc(Cl)cc1 | 183 to 185
O=C(O)c1cc(-c2cccnc2)nc2nc(N3CCCC3)sc12 | 329 to 331
COC(=O)c1c(Cl)c([N+](=O)[O-])cc([N+](=O)[O-])c1Cl | 97 to 99
CC(=O)c1cc(Cl)cc(CCl)c1O | 72 to 74
O=C(O)CCCNC(=O)NC1CCCCC1 | 153 to 155
Cc1ccc(-c2nc(N)sc2CC(=O)O)cc1C | 265 to 267
NC(=O)c1cc2ccccc2c(Cl)n1 | 264 to 266
Cc1ccc(N2CCC(Br)C2=O)cc1 (configuration not stated) | 83 to 85
Cc1cc(-n2nccc2N)ncn1 | 59 to 61
Cc1cc(C(=O)O)ccc1NS(=O)(=O)C(F)(F)F | 203 to 205

SMILES | melting point [°C]
COc1ccc(-c2nn(-c3ccccc3)cc2C=CC(=O)O)cc1OC | 162 to 164
CC(C)(C)OC(=O)NC1CCCCCC1O (configuration not stated) | 85 to 87
ON=Cc1ccc(OCc2cccnc2)cc1 | 187 to 189
Nn1cncn1 | 64 to 66
CCOC(=O)c1cc(CC)sc1N | 69 to 71
COc1ccc(C(=O)C(Cl)c2ccc(OC)cc2)cc1 (configuration not stated) | 69 to 71
Cc1nc2nc(S)nn2c(C)c1CC(=O)O | 226 to 228
Cn1cnnc1SCc1ccc(C(=O)O)o1 | 179 to 181
O=C(O)c1ccc(NS(=O)(=O)c2ccc(Cl)c([N+](=O)[O-])c2)cc1O | 242 to 244
Cc1[nH]nc(C(N)=O)c1N | 219 to 221
O=C(O)c1cc2[nH]nnc2cc1F | 268 to 270
CC(C)(C)OC(=O)NCCC1CNc2ccccc21 (configuration not stated) | 90 to 92
CC(C)(C)C(=O)N1CCc2cc(C(=O)O)ccc21 | 195 to 197
Nc1cc(-c2ccccc2Cl)no1 | 69 to 71
NC(=O)Nc1ccc(S(=O)(=O)F)cc1 | 177 to 179
NC(CCO)c1ccc(F)cc1 (configuration not stated) | 67 to 69
O=C(O)c1cc(N2CCNC2=O)ccc1F | 319 to 321
COc1ccc(N)cc1-n1cnnn1 | 139 to 141
O=C(O)C=Cc1cn(-c2ccccc2)nc1-c1ccc2c(c1)OCCO2 | 250 to 252
Cc1[nH]c2ncnn2c(=O)c1CCO | 267 to 269
O=C(c1cnoc1)c1ccccc1O | 113 to 115
CCc1cc(Cl)n2nc(C(=O)OC)nc2n1 | 179 to 181
O=C(O)CCS(=O)c1ccc2c(c1)OCCO2 (configuration not stated) | 110 to 112
O=C(O)CS(=O)(=O)c1cccc(Br)c1 | 139 to 141

SMILES | melting point [°C]
NNC(=O)NC1CCCC1 | 124 to 126
O=C(O)C1(c2cccc(Br)c2)CCOCC1 | 152 to 154
Nc1cc([N+](=O)[O-])ccc1Nc1cccc(C(F)(F)F)c1 | 165 to 167
NS(=O)(=O)c1cc(Cl)c(F)c(C(=O)O)c1 | 228 to 230
Fc1cccc(Nc2nnc(S)s2)c1 | 206 to 208
O=C(O)c1ccc2[nH]c(-c3ccc(Cl)cc3)nc2c1 | 319 to 321
NC(=O)c1ccc(N2CCCCC2)c(N)c1 | 168 to 170
CC(Cl)C(=O)Nc1ccc2c(c1)OCCCO2 (configuration not stated) | 97 to 99
CCOC(=O)C(NC(=O)c1ccc(Cl)c(Cl)c1)C(C)O (configuration not stated) | 68 to 70
COc1ccc(NC(=O)c2ccc(C(=O)O)s2)cc1 | 247 to 249
O=C(O)c1cc2ccccc2c(Cl)n1 | 202 to 204
CS(=O)(=O)Nc1cc(N)ccc1F | 154 to 156
CC(=O)c1ccc(NC(=O)NC(C)C)cc1 | 147 to 149
COc1ccc(C(=O)N2CCCC2)cc1N | 137 to 139
CCC(Oc1ccccc1F)C(=O)O (configuration not stated) | 63 to 65
Cc1sc2ncnc(Sc3ccccc3C(=O)O)c2c1C | 200 to 202
O=C(CCCl)N1CCN(c2ncccn2)CC1 | 139 to 141
Cc1cc(C#N)ccc1Oc1ccc(C(=O)O)cc1 | 212 to 214
CC(=O)N(c1nc(/C=C\C(=O)O)cs1)c1ccccc1F | 195 to 197
Nc1cc(C(=O)O)ccc1N1CCSCC1 | 252 to 254
O=c1[nH]c(CCl)nc2c1oc1ccccc12 | 98 to 100
Nc1cnn(Cc2ccc(Cl)cc2)c1 | 49 to 51
CCN(CC)c1nc2sc(C(=O)O)cc2s1 | 191 to 193
CC(C)(C)c1ccc(C(=O)O)cc1[N+](=O)[O-] | 156 to 158

SMILES | melting point [°C]
CC(C)S(=O)(=O)c1ccc(CCl)cc1 | 69 to 71
O=C(O)CCn1nc(-c2cccs2)oc1=O | 146 to 148
CC(C)(C)n1cnnc1SCC(=O)O | 161 to 163
CNS(=O)(=O)c1ccc(C)c(C(=O)O)c1 | 170 to 172
CC(=O)Nc1ccc(N)c(C(F)(F)F)c1 | 118 to 120
O=C(O)CCNS(=O)(=O)C(F)(F)F | 87 to 89
O=C(O)Cn1cnc([N+](=O)[O-])n1 | 187 to 189
COc1ccc(OC)c2c(O)c(C(=O)O)cnc12 | 272 to 274
Clc1cccc2c(CBr)csc12 | 84 to 86
O=C(CC1CCCCC1)NC1CCC(C(=O)O)CC1 (configuration not stated) | 136 to 138
OCc1cc(Br)c2c(c1)OCO2 | 134 to 136
Nc1nc(CC(=O)c2ccccc2)cs1 | 157 to 159
c1ccc2c(c1)ncn2C1CCCNC1 (configuration not stated) | 104 to 106
CC1(c2ccc(I)cc2)NC(=O)NC1=O (configuration not stated) | 265 to 267
NC1(C(=O)O)CCCSC1 (configuration not stated) | 208 to 210
COc1cc(C=O)cc(OC)c1OC(F)F | 115 to 117
O=Cc1sc(Nc2ccccc2)nc1Cl | 164 to 166
CS(=O)(=O)c1cccc(Cl)c1C(N)=O | 200 to 202
Clc1nc(-c2cccnc2)nc2sc3c(c12)CCC3 | 145 to 147
CCOC(=O)Nc1nnc(S)s1 | 205 to 207
CS(=O)(=O)c1cccc(NC(=O)CCl)c1 | 104 to 106
CC(=O)C(C#N)c1c(F)cccc1Cl (configuration not stated) | 100 to 102
Cn1nnnc1SCC(=O)Nc1ccc(C(=O)O)cc1 | 190 to 192
O=[N+]([O-])c1cccc(-c2nn[nH]n2)c1 | 154 to 156

SMILES | melting point [°C]
Nc1cccc(S(=O)(=O)NC2=NCCC2)c1 | 166 to 168
Nc1cc2c(cc1[N+](=O)[O-])OCCCO2 | 73 to 77
Cn1cc(C2NC(=O)CCC2N)cn1 (configuration not stated) | 164 to 166
CCc1n[nH]c(=O)c(C#N)c1CC | 166 to 168
Cc1c[nH]c(=O)n1-c1cccc(N)c1 | 232 to 234
Clc1nc(-c2ccsc2)nc2ccccc12 | 122 to 124
CNC(=O)COc1cccc(Br)c1 | 94 to 96
CCNC(=O)c1ccc(I)cc1 | 148 to 150
COc1ccc(N(C(C)=O)c2nc(C=O)cs2)cc1 | 180 to 183
CCc1ccc(-c2cnnc(N)n2)cc1 | 248 to 250
NC(=S)CO | 54 to 56
CC(C)c1nccc(O)n1 | 239 to 241
CCOc1ccc(S(=O)(=O)Cl)cc1-c1ccccc1 | 78 to 80
CS(=O)Cc1cccc(C(=O)O)c1 (configuration not stated) | 181 to 183
Cc1ccc(S(=O)(=O)N2CCCCC2C)cc1C(=O)O (configuration not stated) | 149 to 151
O=C(O)c1csc(C(=O)O)c1 | 279 to 281
O=C(O)C1CCCN1c1ncnc2ccccc12 (configuration not stated) | 139 to 141
NC(=O)c1ccc(CSc2ncccc2C(=O)O)cc1 | 291 to 293
N#CC1(CS(N)(=O)=O)CC1 | 109 to 111
COc1cccc(-n2c(C)nnc2SCC(=O)O)c1 | 130 to 132
CC1CCc2c(sc3nc(CCl)[nH]c(=O)c23)C1 (configuration not stated) | 180 to 182
O=C(Nc1ccccc1F)C1CSCN1 (configuration not stated) | 97 to 99
